From patent US10029994B2, “Isoxazole hydroxamic acid compounds as LpxC inhibitors” (priority 2014, dated 2018) come the findings set out here.

Read-outs that look alike come from different tables or passages of the source.

One experiment has as its system P. A. PAO1 NB52019. The experiment can be described thus: MIC, broth microdilution (CLSI). It counts as cell-based, Pseudomonas aeruginosa. Particulars: Pseudomonas aeruginosa, read-out: P. A. PAO1 NB52019 MIC. A digest of the protocol: (§1)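 CLSI broth microdilution in cation-adjusted Mueller-Hinton broth, about 5×10^5 CFU/mL inoculum, 1% DMSO final, 20 h at 35 °C in ambient air; MIC is lowest concentration preventing visible growth, checked by OD600. For potentiation, rifampicin was included in the inoculum at a fixed sub-inhibitory level.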

Another experiment concerns the target T1, P. aeruginosa LpxC (Pseudomonas aeruginosa, UniProt P47205).
T1 construct: made in house
T1 sequence (P47205 1-303): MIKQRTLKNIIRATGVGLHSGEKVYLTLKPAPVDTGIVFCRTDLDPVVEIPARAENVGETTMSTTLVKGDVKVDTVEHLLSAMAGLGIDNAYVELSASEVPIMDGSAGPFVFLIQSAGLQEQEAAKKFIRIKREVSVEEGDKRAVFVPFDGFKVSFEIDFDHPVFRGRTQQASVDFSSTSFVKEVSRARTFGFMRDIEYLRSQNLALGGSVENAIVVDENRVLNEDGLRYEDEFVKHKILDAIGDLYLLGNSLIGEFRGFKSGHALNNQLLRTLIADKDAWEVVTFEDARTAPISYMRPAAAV
Kind of experiment: P. aeruginosa LpxC Inhibition Assay (LC-MS/MS). Type of experiment: biochemical. Particulars: 1 nM P. aeruginosa LpxC, 30 min pre-incubation, 2 μM UDP-3-O-(R-3-hydroxydecanoyl)-GlcNAc, pH 7.5. A digest of the protocol:
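Compounds were pre-incubated 30 min at room temperature with 1 nM LpxC, then 2 μM UDP-3-O-(R-3-hydroxydecanoyl)-GlcNAc was added in 50 mM sodium phosphate pH 7.5, 0.005% Triton X-100 for 20 min. After acetic acid quench, product was quantified by LC-MS/MS against a calibration curve. IC50 came from a four-parameter logistic fit.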

Another experiment deals with E. C. ATCC 25922. Kind of experiment: MIC, broth microdilution (CLSI). Type of experiment: cell-based, Escherichia coli. Particulars: Escherichia coli, ATCC25922, 20 h, read-out: E. C. ATCC 25922 MIC. In a few lines: as §1
Experiment [1] relates to A. B. ATCC 19606. The experiment can be described thus: MIC, broth microdilution (CLSI). It counts as cell-based, Acinetobacter baumannii. Particulars: Acinetobacter baumannii, read-out: A. B. ATCC 19606 MIC. In a few lines: as §1
Experiment [2] relates to A. B. ATCC 19606. The experiment can be described thus: MIC in the presence of sub-inhibitory rifampicin (potentiation/synergy). It counts as cell-based, Acinetobacter baumannii. Particulars: +2 μg/ml rifampicin (RIF); broth microdilution, 35° C., 20 hours. A digest of the protocol:
as §1
(Broth dilution looks for growth in wells or tubes with falling amounts of substance.)

The next experiment has as its system E. C. ATCC 29522. The experiment is described as above. Type of experiment: cell-based, Escherichia coli. Particulars: +2 μg/ml rifampicin (RIF); broth microdilution, 35° C., 20 hours. In a few lines: as §1
[3] abbreviates: PAO1, broth microdilution, 35° C., 20 hours.
[4] abbreviates: broth microdilution, 35° C., 20 hours.
[5] abbreviates: ATCC19606, broth microdilution, 35° C., 20 hours.

Turning to `C/C=C(\C)c1cc(CC[C@](C)(C(=O)NO)S(C)(=O)=O)no1` [Compound 4.3-1, (R,E)-4-(5-(but-2-en-2-yl)isoxazol-3-yl)-N-hydroxy-2-methyl-2-(methylsulfonyl)butanamide], the MIC with P. A. PAO1 NB52019 (PAO1, 20 h) is 2 µg/mL; with E. C. ATCC 25922 it was 32 µg/mL; in the experiment with A. B. ATCC 19606 [1] (ATCC19606, 20 h) it was greater than 64 µg/mL. Moreover, the half-inhibitory concentration (IC50) on P. aeruginosa LpxC is 3 nM. Also, in the experiment on A. B. ATCC 19606 [2], the “A. B. ATCC 19606 (+2 μg/ml RIF) MIC” value came to 8 µg/mL. The “E. C. ATCC 29522 (+2 μg/ml RIF) MIC” value in the experiment with E. C. ATCC 29522 stood at 0.5 µg/mL.

Consider `C[C@@](CCc1cc(/C(F)=C/C2CC2)on1)(C(=O)NO)S(C)(=O)=O` [Compound 4.5-1, (R,Z)-4-(5-(2-cyclopropyl-1-fluorovinyl)isoxazol-3-yl)-N-hydroxy-2-methyl-2-(methylsulfonyl)butanamide], for which the minimal inhibitory concentration (MIC) was 0.25 µg/mL with P. A. PAO1 NB52019 (setting [3]), 2 µg/mL with E. C. ATCC 25922 (setting [4]) and greater than 64 µg/mL in the experiment with A. B. ATCC 19606 [1] (setting [5]). For the same compound, the IC50 against P. aeruginosa LpxC is less than 1 nM. Further, the “A. B. ATCC 19606 (+2 μg/ml RIF) MIC” value with A. B. ATCC 19606 [2] is 0.25 µg/mL. In addition, in the experiment with E. C. ATCC 29522, the “E. C. ATCC 29522 (+2 μg/ml RIF) MIC” value was 0.25 µg/mL.

`C[C@@](CCc1cc(/C=C(\F)C2CC2)on1)(C(=O)NO)S(C)(=O)=O` [Compound 4.7, (R,Z)-4-(5-(2-cyclopropyl-2-fluorovinyl)isoxazol-3-yl)-N-hydroxy-2-methyl-2-(methylsulfonyl)butanamide]: the minimum inhibitory concentration (MIC) in the experiment on P. A. PAO1 NB52019 (setting [3]) was 0.5 µg/mL; in the experiment with E. C. ATCC 25922 (setting [4]) it was 8 µg/mL; in the experiment with A. B. ATCC 19606 [1] (setting [5]), greater than 64 µg/mL. Moreover, at P. aeruginosa LpxC, the 50% inhibitory concentration (IC50) is less than 1 nM. Moreover, the “A. B. ATCC 19606 (+2 μg/ml RIF) MIC” value with A. B. ATCC 19606 [2] was found to be 0.5 µg/mL. In the experiment with E. C. ATCC 29522, the “E. C. ATCC 29522 (+2 μg/ml RIF) MIC” value turned out to be 0.5 µg/mL.

Consider `C[C@@](CCc1cc(C2=CCCCC2)on1)(C(=O)NO)S(C)(=O)=O` [Compound 4.8, (R)-4-(5-(cyclohex-1-en-1-yl)isoxazol-3-yl)-N-hydroxy-2-methyl-2-(methylsulfonyl)butanamide], for which the results for the MIC in the experiment with P. A. PAO1 NB52019 (setting [3]), in the experiment with E. C. ATCC 25922 (setting [4]) and in the experiment with A. B. ATCC 19606 [1] (setting [5]) were 0.25 µg/mL, 4 µg/mL and greater than 64 µg/mL, respectively. This compound had an IC50 on P. aeruginosa LpxC of less than 1 nM. In the experiment with A. B. ATCC 19606 [2], the “A. B. ATCC 19606 (+2 μg/ml RIF) MIC” value is 1 µg/mL. Moreover, the “E. C. ATCC 29522 (+2 μg/ml RIF) MIC” value in the experiment with E. C. ATCC 29522 amounted to 0.5 µg/mL.

As usually defined, the MIC is the least concentration at which growth counts as inhibited. Usually IC50 stands for the midpoint of a concentration-inhibition curve. Low readings indicate greater potency in that assay, high ones weaker potency in that assay.
